Reference: patent US20050143453A1, “Selective preventing and therapeutic agents for progressive lesion after organic damage” (priority 2000, published 2005)

What was measured:
[1] = system: obstruction-released kidney of male SD rats; assay: Obstruction release model after complete obstruction of unilateral ureter for 14 days (UUO/Release, Test Example 3); assay type: in vivo, rat; set-up: key to Suppressive Effect to Glomerular Lesion / Suppressive Effect to Lesion of Tubulointerstitial Tissue: ∘: available; Δ: somewhat available; x: not available
Protocol: Obstruction Release Model after Complete Obstruction of Unilateral Ureter for 14 Days
Experimental models were prepared by a method devised and established by Ishibashi (Michio Ishibashi, et al.: The Japanese Journal of Nephrology, 42: 248, 2000) using male SD rats of 8-9 weeks age and about 280 g. Thus, the rat was laparotomized under anesthetization with ether and ureter was ligated with 7-0 Nylon at the height of the margin of lower pole of left kidney to close the abdomen. On the 14th day after obstruction, the obstruction was released and urinary passage was reconstructed using a cuff. Thus, after 14 days, the part of ligated obstructed ureter was resected, a polyethylene tube of 25 gages (manufactured by Nippon Sherwood) was used as a cuff and inserted into and retained at the lumen from the cut end of the lower normal ureter, then the cuff was also retained in the expanded upper ureter and each of them was ligated and fixed by 7-0 Nylon to reconstruct the urinary passage. At the same time, the right kidney at the opposite side was excised. After the release of the obstruction, body weight was measured, blood was collected on the 2nd day, 5th day and 7th day from the release to measure serum creatinine, then the rat was sacrificed under anesthetization and the left obstruction-released kidney was excised. With regard to the excised kidney, there were carried out measurement of weight of the kidney and pathological test for the kidney.
An in vivo biological test was carried out for the γ-lactone derivatives according to the present invention using the above models. With regard to the test compound, bulk powder of the test compound was dissolved in an aseptic physiological saline together with gum arabic and the final concentration of gum arabic was 5%(vol/vol). The concentration of the test compound 30 mg/ml was suspended in 5% gum arabic-saline solution. The preparation was subcutaneously injected at the dose of 30 mg/kg every day throughout the experiment. With regard to the test compound, there were used (9-1), (4-2) and (7-3) as the compounds of group I suppressing the SPFC production by allo-MLC stimulation, i.e., the compounds which selectively suppress the induction of effector macrophage in the presence of allo-MLC while there was used (3-2) as the compound of group II suppressing the SPFC production by LPS stimulation, i.e., the compounds which selectively suppress the induction of effector macrophage in the presence of LPS.
In the Table, “functional classification” of the compound means the above group I, group II and group III. “Compound” means the compound bearing each of the above-mentioned compound numbers. The fact whether glomerular lesion was suppressed was judged by the ameriolation of the lesions such as thickness of wall of Bowman's capsule, hyperplasia of mesangial cells and glomerular sclerosis. The fact whether lesion of tubulointerstitial tissue was suppressed was judged by the ameriolation of the lesions such as thickness of basement membrane of tubules, cellular infiltration and fibrosis of interstitial tissue. In the table, “control” is the result when the same test as above was carried out using 5% gum arabic only which is a solvent.
In order to further confirm whether the preventive and therapeutic effect of the γ-lactone derivatives of the present invention to the target cell damage is selective, (7-3) of the group I and (6-1) of the group II were used as test compounds and they were subcutaneously injected at the dose of 30 mg/kg every day and compared with the control group. With regard to the control group, only 5% gum arabic which is a solvent was used and the same test as above was carried out.

[2] = system: lesion of tubulointerstitial tissue / glomerulus; assay: Suppression of renal lesion in vivo by active metabolites (model not stated)
[3] = Acute and chronic toxicity tests (Test Example 5); assay type: in vivo; settings: subcutaneously 90 mg/kg/day for ten days
Protocol: Acute and Chronic Toxicity Tests
Toxicity test of benzyl 2-chloro-5-oxotetrahydrofuran-2-carboxylate represented by the formula (6-1) manufactured in Example 8 and ethyl 2-ketoglutarate represented by the formula (9-1) was carried out.

[4] = 30 mg/kg subcutaneously every day, Table 2
[5] = Experimental Model of Rat: UUO/Release

CCOC(=O)C(=O)CCC(=O)O [(9-1), ethyl 2-ketoglutarate]
selectivity of the suppressive effect on renal lesions ([1]; 30 mg/kg subcutaneously every day): selective suppressive effect
Rate of Cases where Glomerular Lesion was Suppressed [1, 4]: 0% (0/4)
Rate of Cases where tubulointerstitial Lesion was Suppressed [1, 4]: 100% (4/4)
Serum Creatinine level (mg/dl) on the 7th Day from Release of Obstruction [1, 4]: 2.0 ± 0.2 mg/dL
Weight of Kidney (g) on the 7th Day from Release of Obstruction [1, 4]: 3.01 ± 0.56 g
Suppressive Effect to Glomerular Lesion [1, 5]: x
Suppressive Effect to Lesion of Tubulointerstitial Tissue [1, 5]: ∘
suppression of lesion in tubulointerstitial tissue in vivo [2]: shows an activity for suppressing
toxicity finding [3]: an increase in weights of the liver and the spleen in a light degree
